Test results taken from patent publication US8710018B2, “Methods and compositions for inhibiting progression to chronic cardiac failure” (priority 2008, dated 2014).

Assays:
[1] = tested on: patients with chronic coronary artery disease and CHF; details: 3 weeks of oral D-ribose, 15 patients with existing CHF, cited from earlier work
[2] = tested on: rat myocardial infarction model (left anterior descending (LAD) artery ligation); assay: Rat myocardial infarction model (LAD artery ligation), echocardiographic function of the remote myocardium; format: in vivo
From the text: Although believed to be applicable to several different precipitating causes of CHF, the present inventor initially chose a myocardial infarction model because it would allow the effects of the infarct on the normal remaining myocardium to be studied without confounding factors, particularly the presence of disease in the tissues studied.
An important consequence of an MI is that the uninvolved, often normal, remote myocardium (RM) must assume the entire workload of the ventricle. […] The subcellular events which control and set in motion, the progression to CHF were heretofore unknown. The present inventor hypothesized that the progression begins when the remaining normal myocardium (RM) must assume the entire cardiac load, in effect a large increase for the RM, producing an unfavorable myocardial energy supply/demand ratio which leads to depressed myocardial energy levels. Moreover, because of the continuous nature of the stress imposed, there is essentially no opportunity to recover. As a result, the continued breakdown of AMP with further erosion of ATP levels occurs. Studies to understand this progression in a myocardial infarction (MI) model were undertaken. The hypothesis that a fall in RM energy levels, including myocardial ATP, leads to decreased function was tested by infusing ribose in a rat MI model. A rat myocardial infarction model involving (left anterior descending (LAD) artery ligation) was utilized. In this model the RM must produce the entire cardiac output and left ventricular (LV) dysfunction develops as depicted in FIG. 2 and in the results depicted in FIGS. 3-6.
Methods: Male Lewis rats (250-300 g, n=12) were evaluated by initial baseline 2D guided M-mode echocardiographic analysis using an HP SONOS 1550 system. The echocardiography included short axis views and EF by cubed formula, analyzing the variables of LVdd, LVsd, RM wall thickness, EF and SF. […] Animals underwent ligation of the left anterior descending coronary artery by to produce an anterior wall MI at 1-2 days after pump placement and received continuous venous infusion of 0.9% NaCl solution (at 30 μl/kg/hr) with or without 2.5% D-ribose (N=6 for each group) via the implanted osmotic mini-pump for 14 days. Echocardiographic analysis was performed 2 and 4 weeks post-MI to assess changes in function by ejection indices (ventricular contractility, ejection and shortening fractions), chamber dimensions, and wall thickness. FIG. 3 depicts the M-mode echocardiographic appearance of a rat heart in which post MI CHF has developed.

[3] = tested on: rodent MI model; details: continuous i.v. ribose from before ligation for up to 48 hours, cited from earlier work
[4] = tested on: myocardial ATP levels; details: cited from earlier work
[5] = tested on: myocardial ATP levels; details: rats given a toxic dose of isoproterenol and constriction of the abdominal aorta; cited from earlier work
[6] = 2 wks post MI, 2.5% D-ribose continuous venous infusion for 14 days
[7] = 4 wks post MI, 2.5% D-ribose continuous venous infusion for 14 days
[8] = Pre-MI (baseline), ribose group
[9] = ribose infusion for 14 days after MI

## O=C[C@H](O)[C@H](O)[C@H](O)CO [Ribose, D-ribose]
[1]; P< or =0.01
  quality of life by questionnaire: 467±128
[1]; P=0.002
  E wave deceleration: 196±42
[1]; P=0.02
  left atrial dimension: 47 ± 18 mL
[2]; [6]
  Ejection fraction (EF): 50.5 ± 5.9 %
  LV diastolic diameter: 0.72 ± 0.08 cm
  LV systolic diameter: 0.47 ± 0.22 cm
  Posterior wall diastolic thickness: 0.18 ± 0.12 cm
  Shortening fraction (SF): 19.8 ± 4.4%
[2]; [7]
  Ejection fraction (EF): 49.1 ± 9.4 %
  LV diastolic diameter: 0.76 ± 0.07 cm
  LV systolic diameter: 0.64 ± 0.09 cm
  Posterior wall diastolic thickness: 0.13 ± 0.03 cm
  Septal diastolic thickness: 0.12 ± 0.02 cm
  Shortening fraction (SF): 19.9 ± 6.1 %
[2]; [8]
  Ejection fraction (EF): 76.4 ± 5.9%
  LV systolic diameter: 0.39 ± 0.06 cm
  Posterior wall diastolic thickness: 0.13 ± 0.02 cm
  Septal diastolic thickness: 0.13 ± 0.02 cm
  Shortening fraction (SF): 38.6 ± 5.3%
[2]; Pre-MI (baseline), ribose group, 2.5% D-ribose continuous venous infusion 30 μl/kg/hr for 14 days
  LV diastolic diameter: 0.64 ± 0.04 cm
[2]; [9]
  contractility (EF, SF) compared to the untreated animals: better preserved
  ventricular dilation: significantly reduced
  wall thickness compared to the untreated animals: increased
[3]
  post-MI rise in LV end-diastolic pressure: reduced
[3]; first (24 hr) time point
  fall of ATP in the nonischemic myocardium: reduce the fall of ATP
[4]; acute stress models of recovery (i.e. global ischemia), ribose bypasses the G6PDH step
  speeding of ATP recovery: at least 10 fold
[4]; global ischemia and reperfusion model, ribose infusion
  return of myocardial ATP levels and function: greatly enhance return
[5]
  ATP levels: maintained for 24 hours
